# Values joined by “and” are separate entries in the source; they are usually repeats but may differ in a detail not shown here. Identical values can stand only once.
# Assays:
# Type in all cases: cell-based, human
# [1] = system: non-senescent control IMR90 ER:RAS cells; assay: Nuclei count (Hoechst, high content imaging) senolytic assay, OIS model, non-senescent control cells; settings: for Mean % Cell Survival: mean n=3 (Fig 3C)
# Summary of the method: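 IMR90 ER:RAS (p14), ±4-OHT 100 nM; cpd 10 nM–10 μM, 10-pt […], 72 h, n=3. Fix formaldehyde, Triton X-100, Hoechst 2 μg/ml final. Readout: imaged nuclei count vs untreated; ouabain positive control.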
# [2] = system: non-senescent control A549 cells; assay: Nuclei count senolytic assay, TIS model, non-senescent control cells; settings: Control cells, mean
# Summary of the method: (§1)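 Etoposide 100 μM, 48 h, + 3 d standard media → senescent A549; untreated A549 = controls. 24 h post-seeding, cpds 10 nM–10 μM final, 10-pt […], 72 h, n=3. Fix formaldehyde, permeabilise Triton-X100, Hoechst 2 μg/ml, image, count nuclei.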
# [3] = system: senescent A549 cells (etoposide-induced); assay: Nuclei count senolytic assay, therapy-induced senescence (TIS) model, senescent cells; settings: Senescent cells, mean
# Summary of the method: as §1
structure (smiles),measurement,setting,value
"C=Cc1c(C)c2cc3nc(cc4[nH]c(cc5nc(cc1[nH]2)C(C)=C5CCC(=O)O)c(CCC(=O)OC)c4C)[C@@]1(C)C3=CC=C(C(=O)OC)[C@H]1C(=O)OC [Verteporfin, verteporfin, reference compound]",% Cell Survival,"[1]; Control cells, log (dose) [M] -5, individual replicates, SUP FIG 4C",101.159% and 129.718% and 89.9175%
same,% Cell Survival,"[1]; Control cells, log (dose) [M] -5.33, individual replicates, SUP FIG 4C",94.2029% and 128.701% and 95.0504%
same,% Cell Survival,"[1]; Control cells, log (dose) [M] -5.66, individual replicates, SUP FIG 4C",94.8792% and 127.571% and 91.1091%
same,% Cell Survival,"[1]; Control cells, log (dose) [M] -6, individual replicates, SUP FIG 4C",109.082% and 120% and 89.2759%
same,% Cell Survival,"[1]; Control cells, log (dose) [M] -6.33, individual replicates, SUP FIG 4C",132.367% and 79.661% and 117.324%
same,% Cell Survival,"[1]; Control cells, log (dose) [M] -6.66, individual replicates, SUP FIG 4C",84.5411% and 110.056% and 78.5518%
same,% Cell Survival,"[1]; Control cells, log (dose) [M] -7, individual replicates, SUP FIG 4C",102.222% and 109.492% and 85.1512%
same,% Cell Survival,"[1]; Control cells, log (dose) [M] -7.33, individual replicates, SUP FIG 4C",97.1981% and 115.141% and 84.143%
same,% Cell Survival,"[1]; Control cells, log (dose) [M] -7.66, individual replicates, SUP FIG 4C",102.705% and 116.158% and 105.408%
same,% Cell Survival,"[1]; Control cells, log (dose) [M] -8, individual replicates, SUP FIG 4C",88.6957% and 107.684% and 93.9505%
same,Mean % Cell Survival,"[1]; Control, log (dose) [M] -5, 72 h",106.931%
same,Mean % Cell Survival,"[1]; Control, log (dose) [M] -5.33, 72 h",105.985%
same,Mean % Cell Survival,"[1]; Control, log (dose) [M] -5.66, 72 h",104.52%
same,Mean % Cell Survival,"[1]; Control, log (dose) [M] -6, 72 h",106.119%
same,Mean % Cell Survival,"[1]; Control, log (dose) [M] -6.33, 72 h",109.784%
same,Mean % Cell Survival,"[1]; Control, log (dose) [M] -6.66, 72 h",91.0498%
same,Mean % Cell Survival,"[1]; Control, log (dose) [M] -7, 72 h",98.955%
same,Mean % Cell Survival,"[1]; Control, log (dose) [M] -7.33, 72 h",98.8274%
same,Mean % Cell Survival,"[1]; Control, log (dose) [M] -7.66, 72 h",108.09%
same,Mean % Cell Survival,"[1]; Control, log (dose) [M] -8, 72 h",96.7766%
same,% Cell Survival,"[1]; Control, log (dose) [M] -5",103.991% and 103.701% and 133.622%
same,% Cell Survival,"[1]; Control, log (dose) [M] -5.33",95.6459% and 122.354% and 108.369%
same,% Cell Survival,"[1]; Control, log (dose) [M] -5.66",83.672% and 98.7417% and 101.948%
same,% Cell Survival,"[1]; Control, log (dose) [M] -6",86.9376% and 90.2295% and 99.9278%
same,% Cell Survival,"[1]; Control, log (dose) [M] -6.33",101.524% and 93.2642% and 93.3622%
same,% Cell Survival,"[1]; Control, log (dose) [M] -6.66",98.4035% and 102.221% and 102.958%
same,% Cell Survival,"[1]; Control, log (dose) [M] -7",87.0827% and 92.5981% and 92.8571%
same,% Cell Survival,"[1]; Control, log (dose) [M] -7.33",115.893% and 95.1147% and 114.069%
same,% Cell Survival,"[1]; Control, log (dose) [M] -7.66",103.991% and 94.8187% and 102.958%
same,% Cell Survival,"[1]; Control, log (dose) [M] -8",101.306% and 100.444% and 92.0635%
same,Mean % Cell Survival,[2]; log (dose) [M] -5,113.771%
same,Mean % Cell Survival,[2]; log (dose) [M] -5.33,108.79%
same,Mean % Cell Survival,[2]; log (dose) [M] -5.66,94.7872%
same,Mean % Cell Survival,[2]; log (dose) [M] -6,92.365%
same,Mean % Cell Survival,[2]; log (dose) [M] -6.33,96.0501%
same,Mean % Cell Survival,[2]; log (dose) [M] -6.66,101.194%
same,Mean % Cell Survival,[2]; log (dose) [M] -7,90.846%
same,Mean % Cell Survival,[2]; log (dose) [M] -7.33,108.359%
same,Mean % Cell Survival,[2]; log (dose) [M] -7.66,100.589%
same,Mean % Cell Survival,[2]; log (dose) [M] -8,97.9379%
same,Mean % Cell Survival,[3]; log (dose) [M] -5,118.472%
same,Mean % Cell Survival,[3]; log (dose) [M] -5.33,98.5505%
same,Mean % Cell Survival,[3]; log (dose) [M] -5.66,115.47%
same,Mean % Cell Survival,[3]; log (dose) [M] -6,116.11%
same,Mean % Cell Survival,[3]; log (dose) [M] -6.33,114.215%
same,Mean % Cell Survival,[3]; log (dose) [M] -6.66,107.66%
same,Mean % Cell Survival,[3]; log (dose) [M] -7,100.361%
same,Mean % Cell Survival,[3]; log (dose) [M] -7.33,89.0589%
same,Mean % Cell Survival,[3]; log (dose) [M] -7.66,106.923%
same,Mean % Cell Survival,[3]; log (dose) [M] -8,100.292%

# Reference: article PMC10257182, “Discovery of senolytics using machine learning” (Nature Communications, 2023)
